Patent US20220313651A1, “INHIBITORS OF ZIKA VIRUS INFECTION” (priority 2019, published 2022)
Read-outs that look alike come from different tables or passages of the source.

Legend:
[1] = test system: ZIKV human strain FLR (2015/Colombia); experiment: Plaque reduction inhibition assay in Vero E6 cells, ZIKV FLR; assay type: cell-based, Zika virus (ZIKV)
Procedure: (§1) A plaque reduction inhibition assay was carried out to measure the inhibitory activity of Z-medicaments against infections of ZIKV and DENV. […] The compound-virus mixtures were then transferred to Vero E6 cells (10^5/well) and incubated at 37° C. for 1 h.

[2] = test system: ZIKV human strain R103451 (2015/Honduras); experiment: Plaque reduction inhibition assay in Vero E6 cells, ZIKV R103451; assay type: cell-based, Zika virus (ZIKV)
Procedure: as §1

ZIKV PAN2016 strain = experiment: Combinatorial effects of gossypol with other Z-medicaments, ZIKV PAN2016; assay type: cell-based, Zika virus (ZIKV); conditions: for Fold of Enhancement / CI (combination index): ZIKV PAN2016; for Fold of Enhancement: IC50 alone / in mixture; for CI (combination index): named compound in combination with gossypol
Procedure: (§2) The unbound viruses and Z-medicaments were removed, and the cells were cultured at 37° C. for 4-5 days, followed by staining with 0.5% crystal violet. The Z-medicaments without combinations were used as controls. The IC50 of the Z-medicaments was calculated as described above.
(§3) The Z-medicaments were then analyzed for synergistic effects based on the combination index (CI) and IC50 values using the CalcuSyn program. Specifically, CI values <1 and >1 indicate synergy and antagonism, respectively. Synergy was further identified as five different categories: CI values <0.1, 0.1-0.3, 0.3-0.7, 0.7-0.85, and 0.85-0.90 indicate very strong synergism, strong synergism, synergism, moderate synergism, and slight synergism, respectively. Fold enhancement of anti-ZIKV potency is expressed as the ratio of molar concentrations of the Z-medicaments tested alone and in the mixture.

[3] = test system: ZIKV human strain PRVABC59 (2015/Puerto Rico); experiment: Plaque reduction inhibition assay in Vero E6 cells, ZIKV PRVABC59; assay type: cell-based, Zika virus (ZIKV)
Procedure: as §1

ZIKV FLR strain = experiment: Combinatorial effects of gossypol with other Z-medicaments, ZIKV FLR; assay type: cell-based, Zika virus (ZIKV); conditions: for Fold of Enhancement / CI (combination index): ZIKV FLR; for Fold of Enhancement: IC50 alone / in mixture; for CI (combination index): named compound in combination with gossypol
Procedure: as §2, §3

Vero E6 cells = experiment: in vitro
Procedure: The cytotoxicity of the Z-medicaments in Vero E6 (ZIKV target cells) was evaluated using the Cell Counting Kit-8 (CCK8).
Briefly, compounds at 2-fold serial dilutions were added to cells (2.0×10^4/well) pre-seeded in 96-well plates. The cells were cultured at 37° C. for 3 days, and incubated with CCK8 solution, followed by measurement of absorbance at 450 nm (A450 value) using microplate reader.

ZIKV (PAN2016) = experiment: Time-of-addition experiment, ZIKV PAN2016 in Vero E6 cells; assay type: cell-based, Zika virus (ZIKV); conditions: for inhibition at 7.5 µM: Zika virus; for Inhibition of ZIKV infection, pretreatment of ZIKV: virus incubated with compound 37° C. 1 h before cells; for Inhibition of ZIKV infection, attachment: ZIKV and compound at 4° C. 1 h; for Inhibition of ZIKV infection, pretreatment of cells: cells incubated with compound 37° C. 1 h before ZIKV; for Inhibition of ZIKV infection, penetration (membrane fusion): cells with ZIKV at 4° C. 1 h; for Inhibition of ZIKV infection, penetration (membrane fusion) / Inhibition of ZIKV infection, post-entry stage: then compound 37° C. 1 h; for Inhibition of ZIKV infection, post-entry stage: cells with ZIKV at 37° C. 1 h
Procedure: FIG. 2A-K depicts a time-of-addition experiment to test the ability of the disclosed compounds to block ZIKV infection at different steps of the viral life cycle. […] FIG. 2B: Pretreatment of cells: cells were pre-incubated with one of the compounds at 37° C. for 1 h, and the unbound compounds were then removed, followed by addition of ZIKV and incubation of cells at 37° C. for 1 h. After removal of the unbound ZIKV, the cells were cultured and plaques and inhibition rate determined as in FIG. 2A. FIG. 2C: Blockage of ZIKV attachment: cells were incubated with ZIKV at 4° C. for 1 h (to allow ZIKV attachment but not fusion between ZIKV and cell membranes) in the presence of one of the compounds. After removal of the unbound ZIKV and compounds, the cells were cultured and plaques and inhibition rate determined. […] FIG. 2E: Blockage of ZIKV penetration (membrane fusion): cells were incubated with ZIKV at 4° C. for 1 h to allow ZIKV attachment. After removal of the unbound ZIKV, the cells were incubated with one of the compounds at 37° C. for 1 h to allow fusion of virus-cell membranes. After further removal of the unbound compounds, the cells were cultured and plaques and inhibition rate determined. FIG. 2F: Inhibition of post-entry stage: cells were incubated with ZIKV at 37° C. for 1 h (to allow ZIKV entry into the target cells). […] The percent inhibition was calculated based on the numbers of plaques in the presence or absence of serially diluted compounds. The data are expressed as mean±s.e.m. (n=2). The experiments were repeated three times with similar results.
Time-of-addition experiments were performed in Vero E6 cells, and six specific steps are shown as follows. 1) Step 1: Pretreatment of virus. […] After removal of the unbound compounds, ZIKV was incubated with cells at 37° C. for 1 h, followed by culturing cells at 37° C. for 4-5 days, and enumerating plaques. 2) Step 2: Pretreatment of cells. […] The unbound ZIKV was removed, and the cells were cultured and plaques enumerated as in Step 1. 3) Step 3: Attachment. […] After removal of the unbound ZIKV and compounds, the cells were cultured and plaques enumerated as in Step 1. 4) Step 4: Co-treatment. […] After removal of the unbound viruses and compounds, the cells were cultured and plaques enumerated as in Step 1. 5) Step 5: Fusion. Cells were incubated with ZIKV at 4° C. for 1 h for ZIKV attachment. […] The unbound compounds were removed, and the cells were cultured and plaques enumerated as in Step 1. 6) Step 6: Post-entry. Cells were incubated with ZIKV at 37° C. for 1 h for ZIKV entry. […] The unbound compounds were then removed, and the cells were cultured and enumerated for plaques as in Step 1. The data are expressed as mean % inhibition±s.e.m. (n=2). The percent inhibition was calculated based on the numbers of plaques in the presence or absence of the compounds. The experiments were repeated three times with similar results.
Time-of-addition experiments. were performed to identify mechanisms of the Z-medicaments against ZIKV infection. […] Specifically, the following six stages of ZIKV infection were tested: (a) Pretreatment of ZIKV (PAN2016, ˜2.5×10^3 PFU) with the Z-medicaments at 37° C. for 1 h before incubation with cells; (b) Pretreatment of cells with the Z-medicaments at 37° C. for 1 h before incubation with ZIKV (PAN2016, ˜100 PFU); (c) Co-treatment of cells, ZIKV (PAN2016, ˜300 PFU) and the Z-medicaments at 4° C. for 1 h; (d) Co-treatment of cells, ZIKV (PAN2016, ˜100 PFU) and the Z-medicaments at 37° C. for 1 h; (e) Pre-incubation of cells with ZIKV (PAN2016, ˜300 PFU) at 4° C. for 1 h and then incubation with the Z-medicaments at 37° C. for 1 h; and (f) Pre-incubation of ZIKV (PAN2016, ˜100 PFU) and cells at 37° C. for 1 h, followed by incubation with the Z-medicaments at 37° C. for 1 h. […]

[4] = Zika virus, Vero C1008, Vero E6 cells, Table 1, read-out: IC50 against ZIKV strain FLR
[5] = Zika virus, Vero C1008, Vero E6 cells, Table 1, read-out: IC50 against ZIKV strain R103451
[6] = Zika virus, Vero C1008, read-out: IC50 Alone
[7] = gossypol 15 μM, curcumin 30 μM, digitonin 7.5 μM, conessine 30 μM, ST087010 15 μM
[8] = Vero E6 cells, 3 days, CCK8, Table 1
[9] = co-treatment of cells, gossypol 15 μM, curcumin 30 μM, digitonin 7.5 μM, conessine 30 μM, ST087010 15 μM

| SMILES | IC50 [1, 4] [µM] | IC50 [2, 5] [µM] | Inhibition of ZIKV infection, pretreatment of ZIKV (ZIKV (PAN2016); [7]) | CI (combination index) (ZIKV PAN2016 strain) | CI (combination index) (ZIKV FLR strain) | CC50 (Vero E6 cells; [8]) [µM] | Inhibition of ZIKV infection, attachment (ZIKV (PAN2016); [9]) | Inhibition of ZIKV infection, pretreatment of cells (ZIKV (PAN2016); [7]) | Inhibition of ZIKV infection, penetration (membrane fusion) (ZIKV (PAN2016); [7]) | Inhibition of ZIKV infection, post-entry stage (ZIKV (PAN2016); [7]) | other results |
| --- | --- | --- | --- | --- | --- | --- | --- | --- | --- | --- | --- |
| Cc1cc2c(C(C)C)c(O)c(O)c(C=O)c2c(O)c1-c1c(C)cc2c(C(C)C)c(O)c(O)c(C=O)c2c1O [Gossypol, gossypol] | 0.21 ± 0.01 | 2.28 ± 0.1 |  |  |  |  |  |  |  |  | IC50 ([1]; Zika virus, Vero C1008, read-out: ZIKV strains IC50, FLR): 0.73 ± 0.07 µM; IC50 ([2]; Zika virus, Vero C1008, read-out: ZIKV strains IC50, R103451): 3.12 ± 0.38 µM; IC50 (ZIKV PAN2016 strain; [6]): 3.79 ± 0.01 µM; IC50 ([3]; Zika virus, Vero C1008, read-out: ZIKV strains IC50, PRVABC59): 4.55 ± 0.07 µM; IC50 (ZIKV FLR strain; [6]): 0.26 ± 0.01 µM; CC50 (Vero E6 cells; African green monkey, 3 days): 14.2 ± 0.74 µM |
| C[C@@H]1CC[C@@]2(OC1)O[C@H]1[C@@H](O)[C@H]3[C@@H]4CC[C@H]5C[C@@H](O[C@@H]6O[C@H](CO)[C@H](O[C@@H]7O[C@H](CO)[C@@H](O)[C@H](O[C@@H]8OC[C@@H](O)[C@H](O)[C@H]8O)[C@H]7O[C@@H]7O[C@H](CO)[C@H](O)[C@H](O[C@@H]8O[C@H](CO)[C@@H](O)[C@H](O)[C@H]8O)[C@H]7O)[C@H](O)[C@H]6O)[C@H](O)C[C@]5(C)[C@H]4CC[C@]3(C)[C@H]1[C@@H]2C [Digitonin, digitonin] | 3.34 ± 0.22 | 4.3 ± 0.43 | no effects | 0.60 | 0.95 | 56.3 ± 1.2 |  |  |  |  | inhibition at 7.5 µM (ZIKV (PAN2016); Vero C1008, 1 h, read-out: Inhibition of ZIKV infection, penetration (membrane fusion)): 49 to 74%; inhibition at 7.5 µM (ZIKV (PAN2016); Vero C1008, 1 h, read-out: Inhibition of ZIKV infection, post-entry stage): 49 to 74%; inhibition at 7.5 µM (ZIKV (PAN2016); Vero C1008, read-out: Inhibition of ZIKV infection, pretreatment of cells): ≥ 94%; Fold of Enhancement (ZIKV PAN2016 strain; gossypol + digitonin): 3.21; IC50 ([3]; Zika virus, Vero C1008, Vero E6 cells, Table 1, read-out: IC50 against ZIKV strain PRVABC59): 3.76 ± 1.12 µM; Fold of Enhancement (ZIKV FLR strain; gossypol + digitonin): 2.04 |
| C[C@H]1[C@H]2CC[C@H]3[C@@H]4CC=C5C[C@@H](N(C)C)CC[C@]5(C)[C@H]4CC[C@]23CN1C [Conessine, conessine] |  |  | very low, to no, effects | 0.44 | 0.85 |  | very low, to no, effects |  |  |  | Fold of Enhancement (ZIKV PAN2016 strain; gossypol + conessine): 4.44; Fold of Enhancement (ZIKV FLR strain; gossypol + conessine): 2.13 |
| COc1cc(/C=C/C(=O)CC(=O)/C=C/c2ccc(O)c(OC)c2)ccc1O [Curcumin, curcumin] |  |  |  | 0.52 | 0.49 | 52.86 ± 0.52 |  | low to no impact | low to no impact | low to no impact | Fold of Enhancement (ZIKV PAN2016 strain; gossypol + curcumin): 3.60; Fold of Enhancement (ZIKV FLR strain; gossypol + curcumin): 3.84 |
| Cc1cc2c(C(C)C)c(O)c(O)c(/C=N/n3c(=O)[nH][nH]c3=O)c2c(O)c1-c1c(C)cc2c(C(C)C)c(O)c(O)c(/C=N/n3c(=O)[nH][nH]c3=O)c2c1O [ST087010] |  |  | almost completely inhibited |  |  |  | < 40% | no or little | no or little | < 20% | IC50 ([1]; Vero E6 cells, Table 7, gossypol derivatives, read-out: ZIKV strains IC50, FLR): 2.76 ± 0.1 µM; Inhibition of ZIKV infection, co-treatment of ZIKV and cells (ZIKV (PAN2016); co-treatment of cells, ZIKV and compound at 37° C. 1 h, gossypol 15 μM, curcumin 30 μM, digitonin 7.5 μM, conessine 30 μM, ST087010 15 μM): no or little; IC50 ([2]; Vero E6 cells, Table 7, gossypol derivatives, read-out: ZIKV strains IC50, R103451): 3.6 ± 0.07 µM; IC50 ([3]; Vero E6 cells, Table 7, gossypol derivatives, read-out: ZIKV strains IC50, PRVABC59): 2.36 ± 0.05 µM; CC50 relative to that of gossypol (Vero E6 cells; Vero E6 cells): about 3.5 fold; CC50 (Vero E6 cells; Vero E6 cells, Table 7, gossypol derivatives): 49.6 ± 1.83 µM |
